Results published in US6232089A, “CD23 processing enzyme preparation” (SmithKline Beecham Corporation, priority 1998, dated 2001).
“Also recorded” adds a separate entry of the source. Counter-ions that a name gives are not always drawn.

Experiments:
[1] = test system: CD23 processing enzyme; assay: Solubilized membrane protein CD23 processing enzyme assay; assay type: biochemical, human; settings: concentration not given
[2] = test system: CD23 processing enzyme; assay: Membrane CD23 cleavage activity assay (sCD23 release from plasma membranes of RPMI 8866 cells); assay type: biochemical, human; settings: for IC50: membranes, read-out: IC50 for inhibition of CD23 processing (production of sCD23)
Procedure: Membrane CD23 cleavage activity assay:
Plasma membranes from RPMI 8866 cells, a human Epstein-Barr virus transformed B-cell (Sarfati et al., Immunology 60 (1987) 539-547), or a similar cell line expressing high levels of CD23 are purified using an aqueous extraction method. Cells resuspended in homogenization buffer (20 mM HEPES pH 7.4, 150 mM NaCl, 1.5 mM MgCl2, 1 mM DTT) are broken by N2 cavitation in a Parr bomb and the plasma membrane fraction mixed with other membranes recovered by centrifugation at 10,000×g. The light pellet is resuspended in 0.2 M potassium phosphate, pH 7.2 using 2 ml per 1-3 g wet cells and the nuclear pellet is discarded. The membranes are further fractionated by partitioning between Dextran 500 (6.4% w/w) and polyethylene glycol (PEG) 5000 (6.4% w/w) at 0.25 M sucrose in a total of 16 g per 10-15 mg membrane proteins (Morre and Morre, BioTechniques 7, 946-957 (1989)). The phases are separated by brief centrifugation at 1000×g and the PEG (upper) phase is collected, diluted 3-5 fold with 20 mM potassium phosphate buffer pH 7.4, and centrifuged at 100,000×g to recover membranes in that phase. The pellet is resuspended in phosphate-buffered saline and consists of 3-4 fold enriched plasma membranes as well as some other cell membranes (e.g. lysosomes, Golgi). The membranes are aliquoted and stored at -80° C. Fractionation at 6.6% Dextran/PEG yields plasma membranes enriched 10-fold.
The fractionated membranes are incubated at 37° C. for times up to 4 hours to produce fragments of CD23 which are separated from the membrane after quenching the assay with 5 uM compound 1 by centrifugation at 10,000×g. These CD23 fragments are consistent with those reported (Letellier et al, J Exp. Med. 172, 693-700 (1990)): MW, app 36-37 kDa as determined by 12% sodium dodecylsulfate-polyacrylamide electrophoresis (SDS-PAGE) of N-terminal sequence QKSQ; MW, app 33 kDa with N-terminal sequence LKSQ. Additional bands not sequenced: MW, app 28-29 kDa and a doublet at 25-26 kDa. These are detected by Western blot of the total protein in the incubation using a polyclonal antibody such as the polyclonal anti-CD23 antibody in The Binding Site (Birmingham, UK) enzyme-linked immunoassay (EIA) Bindazyme kit for the determination of soluble CD23. Following removal of the membrane by centrifugation or filtration in 0.2 micron filter plates (Durapore, Millpore), sCD23 can also be determined using the EIA kit from The Binding Site or a similar one utilizing MHM6 anti-CD23 mAb (Rowe et al., Int. J. Cancer, 29, 373-382 (1982)) or another anti-CD23 mAb as the capture antibody in a sandwich EIA. […] Samples were incubated at 37° C. for the varying times, quenched with compound 1, applied to 12% SDS-PAGE, and Western blotting on PVDF (Bio-Rad) membrane performed using standard methodology with a combination of BD4 (prepared as described in Biological example 2) and a polyclonal antibody which recognizes all soluble fragments as the primary antibody. The blot was developed by ECL, scanned using a BioImage system and quantitated using the Visage analysis package.
Inhibition of CD23 processing can also be determined by Western blot or by the 5 EIA (Elisa) method. The amount of soluble CD23 made by 0.5-5 ug membrane protein is measured either by quantitation of the Western blot as described using a Millipore BioImage system, or by EIA and compared to the amount made in the presence of various concentrations of inhibitors. Inhibitors are prepared in solutions of water or dimethylsulfoxide (DMSO) and the final DMSO concentration is not more than 2%. The enzyme activity of CD23 processing is inhibited by 1,10-phenanthroline (1 mM), and not by 1,7-phenanthroline (1 mM), PMSF (1 mM), E-64 (10 uM), pepstatin (10 uM), leupeptin (10 uM), or tosyl-leucylchloroketone (100 uM), and weakly by phosphoramidon (40% inhibition at 100 uM). The enzyme can heretofore best be described as a metalloprotease rather than a serine, cysteine or acid protease. […]

[3] = test system: CD23 processing activity; assay: Affinity chromatography with compound 8 on streptavidin-agarose; assay type: binding, human
Procedure: Affinity Chromatography with compound 8 (compound 28 in synthetic examples)
An affinity column was prepared with compound 8 on streptavidin-agarose beads (Pierce Chemical Co.) by overnight mixing of an estimated five equivalents of compound 8 with beads in 50 mM HEPES, pH 7.5, 0. 1% NP-40 (binding buffer). The column was washed with 20 volumes of this buffer and 20 volumes of 50 mM HEPES pH 7.5, 0.5% NP-40 in a syringe column, and re-equilibrated to binding buffer. An equivalent column with no compound 8 was also prepared. 150 ug of solubilized membranes from RPMI 8866 cells were applied to the both columns, washed with 3 ml binding buffer, 3 ml binding buffer with 0.1 M NaCl, and 3 ml binding buffer with 50 uM compound 2. Each 1 ml fraction was concentrated, diluted 10-fold and reconcentrated if compound 2 was present, and assayed as in biological example 2. For the column with no compound 8, CD23 processing activity was detected primarily in fractions 1-3, with a small amount in fractions 5 and 6.

[4] = test system: CD23 processing enzyme; assay: Photolabeling of membranes or solubilized membrane proteins containing the CD23 processing enzyme, 12% SDS-PAGE / 2-dimensional gel electrophoresis; assay type: binding; settings: for molecular weight range of majority of minor biotinylated spots / pH range of minor biotinylated spots (acidic proteins): 2-dimensional gel electrophoresis, 0.1 to 0.3 uM compound 4 or 1 uM compound 3; for molecular weight range of photolabeled bands: 12% SDS-PAGE, ECL detection, several bands
Procedure: Compound 4 (Synthetic Example 17), Compound 5 (Synthetic Example 17a), Compound 6 (Synthetic Example 25), and Compound 7 (Synthetic Example 27) can also be used to photolabel membranes or solubilized membrane proteins containing the CD23 processing enzyme, using the same method described for compound 3. Analysis by 12% SDS-PAGE and ECL detection of biotinylated protein, using streptavidin-HRP detects several bands in the molecular weight range 50-65 kDa.
Up to 200 ug of membrane proteins in PBS were solubilized in 0.1 % NP-40 and photolabeled with 0.1 to 0.3 uM compound 4 or 1 uM compound 3 as described for compound 3 above. The sample was then dialyzed vs. 10 mM potassium phosphate pH 7.5, 0.1% NP-40, concentrated in a Centricon 10 (Amicon, Beverly Mass.), then made 8 M in urea, 2% in Triton X-100, 0. 8% in Pharmalyte 3-10 (Pharmacia) and 50 mM in DTT. After electrophoresis in both dimensions, the proteins were blotted to PVDF, and biotinylated proteins detected with streptavidin-HRP as described above. The majority of the minor biotinylated spots observed were in the molecular weight range 50-65 kDa and were acidic proteins with pH in the range 4.5-6.0.

[5] = test system: solubilized membrane proteins from BJAB cells; assay: Photolabeling of Superose 12 column fractions of solubilized membrane proteins, SDS-PAGE; assay type: binding; settings: 1 uM compound 3, long UV, 1 min, Superose 12 fractions, single band
Procedure: Compound 3 is an inhibitor of CD23 processing in membranes with an IC50 of about 1-3 uM. Compound 3 (the synthesis of which is described in the Synthetic Examples section as Example 9), is [N-[4-N'-Hydroxyamino-2-(R)-2-(2-methylpropyl)succinyl]-S-4-azidophenylalanine-N"-(6-biotinoylaminohexyl)amide]. Compound 3 was prepared for use as a photolabeling agents as follows. [drawing 1]
Column fractions from a Superose 12 column of solubilized membrane proteins from BJAB cells were photolabeled with 1 uM compound 3 using a Sunlit phosphor lamp at long UV for 1 min. […] Active fractions from RPMI 8866 fractionations are similarly photolabeled.
Fractions were concentrated, photolabeled as described, applied to 12% SDS-PAGE, blotted to PVDF and photolabeled material detected with streptavidin-horseradish peroxidase (streptavidin-HRP) using ECL (Amersham) methodology. Fraction "0" indicates the photolabeling observed in an unfractionated sample. The 45 kDa MW marker protein migrated with an elution volume corresponding to fractions 17 or 18. The fraction sizes are not the same as FIG. 7.

[6] = test system: CD23 fragments; settings: 10-20 mM, cell cultures; cited from earlier work

SMILES: c1cnc2c(c1)ccc1cccnc12 [1,10-phenanthroline]
- inhibition of activity producing the 33 kDa fragment [1]: inhibition; also recorded: inhibited
- inhibition of CD23 processing ([2]; 1 mM): inhibited

SMILES: CNC(=O)[C@H](Cc1ccccc1)NC(=O)[C@H](CC(C)C)[C@H](CSc1cccs1)C(=O)NO [Compound 1, [4-(N-Hydroxyamino)-2-(R)-isobutyl-3-(S)-(2-thiophenethiomethyl)succinyl]-(S)-phenylalanine-N-methylamide, sodium salt]
- inhibition of activity producing the 33 kDa fragment [1]: inhibited
- inhibition of CD23 processing ([2]; concentration not given): inhibited
- IC50 [2]: 0.1 ± 0.05 µM

SMILES: CC(C)C[C@H](CC(=O)NO)C(=O)N[C@@H](Cc1ccccc1)C(=O)NCc1ccccc1 [Compound 2]
- elution of CD23 processing activity from affinity column with compound 8 ([3]; 50 uM compound 2): specifically eluted
- inhibition of CD23 processing ([2]; concentration not given): weaker inhibitor
- IC50 [2]: 2 ± 1 µM

SMILES: CC(C)C[C@H](CC(=O)NO)C(=O)N[C@@H](Cc1ccc(N=[N+]=[N-])cc1)C(=O)NCCCCCCNC(=O)CCCC[C@@H]1SC[C@@H]2NC(=O)N[C@@H]21 [Compound 3, N-[4-N'-Hydroxyamino-2-(R)-2-(2-methylpropyl)succinyl]-S-4-azidophenylalanine-N"-(6-biotinoylaminohexyl)amide]
- molecular weight range of majority of minor biotinylated spots [4]: 50-65 kDa
- pH range of minor biotinylated spots (acidic proteins) [4]: 4.5-6.0
- MW, app of photolabeled band [5]: 45 kDa
- IC50 [2]: 1 to 3 µM

SMILES: CC(C)C[C@@H](C(=O)N[C@@H](Cc1ccccc1)C(=O)NCCCCCCNC(=O)CCCC[C@@H]1SC[C@@H]2NC(=O)N[C@@H]21)[C@H](CSCC(=NO)c1ccc(N=[N+]=[N-])cc1)C(=O)NO [Compound 4, N-[4-N' Hydroxyamino-3-(S)-3-[(2-[4-azidophenyl]-2-[hydroxyimino]ethyl)-thiomethyl]-2-(R)-2-(2-methylpropyl)succinyl]-S-phenylalanine-N'-(6biotinoylaminohexyl)amide]
- molecular weight range of majority of minor biotinylated spots [4]: 50-65 kDa
- pH range of minor biotinylated spots (acidic proteins) [4]: 4.5-6.0
- molecular weight range of photolabeled bands [4]: 50-65 kDa

SMILES: CC(C)C[C@@H](C(=O)N[C@@H](Cc1ccccc1)C(=O)NCCCCCCNC(=O)CCCC[C@@H]1SC[C@@H]2NC(=O)N[C@@H]21)[C@H](CSCC(=O)c1ccc(N=[N+]=[N-])cc1)C(=O)NO [Compound 5, N-[4-Hydroxyamino-3-(S)-3-(4-azidophenacylthiomethyl)-2-(R)-2-(2-methylpropyl)succinyl]-S-phenylalanine-N'-(6-biotinoylaminohexyl)amide]
- molecular weight range of photolabeled bands [4]: 50-65 kDa

SMILES: CC(C)(C)[C@H](NC(=O)[C@H](Cc1ccc(N=[N+]=[N-])cc1)[C@H](O)C(=O)NO)C(=O)NCCCCCCNC(=O)CCCC[C@@H]1SC[C@@H]2NC(=O)N[C@@H]21 [Compound 6, N'-[3S-Hydroxy-4-(N-hydroxyamino)-2R-(4-azidobenzyl)succinyl]-S-tert-leucine-N-(6-biotinoylaminohexyl)amide]
- molecular weight range of photolabeled bands [4]: 50-65 kDa

SMILES: CC(C)C[C@@H](C(=O)N[C@@H](Cc1ccccc1)C(=O)NCCCCCCNC(=O)CCCC[C@@H]1SC[C@@H]2NC(=O)N[C@@H]21)[C@H](CSCc1ccc(C(=O)c2ccccc2)cc1)C(=O)NO [Compound 7, N-[(3-(S)-(4-benzoylbenzyl)thiomethyl-4-(N-Hydroxyamino)-2R-isobutyl)succinyl]-(S)-phenylalanine-N-(6-biotinoylaminohexyl)amide]
- molecular weight range of photolabeled bands [4]: 50-65 kDa

SMILES: C#CCSC[C@H](C(=O)NO)[C@@H](CC(C)C)C(=O)N[C@@H](Cc1ccccc1)C(=O)NCCCCCCNC(=O)CCCC[C@@H]1SC[C@@H]2NC(=O)N[C@@H]21 [Compound 8, N-[(3-(S)-propargylthiomethyl-4-(N-Hydroxyamino)-2R-isobutyl)succinyl]-(S)-phenylalanine-N-(6-biotinoylaminohexyl)amide]
- fractions in which CD23 processing activity was detected, column with compound 8 ([3]; binding buffer, then 0.1 M NaCl, then 50 uM compound 2, fractions 1-9): only in fractions 7-9
- inhibition of CD23 processing ([2]; concentration not given): inhibitor of CD23 cleavage activity

SMILES: Cc1ccc(S(=O)(=O)N[C@@H](CCCCN)C(=O)CCl)cc1 [TLCK]
- inhibition of CD23 processing ([2]; concentration not given): not inhibited

SMILES: NC(=O)CI [iodoacetamide]
- accumulation of 37 and 33 kDa CD23 fragments [6]: results in the accumulation
- accumulation of the 25-27 kDa CD23 fragments [6]: prevents the accumulation

SMILES: CC(C)C[C@H](NP(=O)(O)O[C@@H]1O[C@@H](C)[C@H](O)[C@@H](O)[C@H]1O)C(=O)N[C@@H](Cc1c[nH]c2ccccc12)C(=O)O [phosphoramidon]
- inhibition ([2]; 100 uM): 40%
- inhibition of CD23 processing ([2]; 100 uM): weakly
